Measured values: patent US9873878B2, “Compositions and methods for use in treating silicosis and lung cancer” (University of Louisville Research Foundation, Inc., priority 2015, dated 2018)

Tested on: RAW264.7 cells
Assay: CS-induced LTB4 production in RAW264.7 culture supernatants (LTB4 EIA)
Type: cell-based
Conditions: RAW264.7 cells pre-treated with 10 μM Zileuton for 1 h, then 120 μg/cm^2 CS for 6 h
Description: FIG. 10C depicts LTB4 production by cells in vitro, measured in culture supernatants of RAW264.7 cells exposed to 120 μg/cm^2 CS for 6 h in presence of 5-LO inhibitor.
LKR13 and RAW264.7cells were cultured in DMEM containing 10% FBS. For CS stimulation assays, 0.3 million cells were plated per well of 12-well tissue culture dishes in 400 μl of 1% FBS containing medium. The cells were stimulated for 6 h with 120 μg/cm^2 of CS. Whenever indicated RAW264.7 cells were pre-treated with 10 μM Zileuton (5-LO inhibitor) for 1 h.
Subcutaneous tumors were homogenized in 500 ul 1×PBS buffer containing 10 uM Indomethacin using Omni GLH general homogenizer. The homogenates were centrifuged at 14000 g for 10 min and LTB4 levels in the supernatants were quantified. The LTB4 levels were normalized to the amount of protein in the supernatants measured by Themo Sceintific Pierce BCA protein assay kit following manufacturer's instructions. LTB4 in the tumor homogenate supernatant was expressed as pg/mg of protein. LTB4 in cell culture supernatants, BALF, air pouch lavage and subcutaneous tumors was measured using LTB4 EIA Kit (Cayman Chemical) according to the manufacturer's instructions. IL-1β in cell culture supernatants was measured using Mouse IL-1β ELISA MAX™ Standard Kit (Biolegend) according to the manufacturer's instructions.

CC(c1cc2ccccc2s1)N(O)C(N)=O (stereo not shown) [Zileuton]
LTB4 production by CS activation: completely blocked
